{"source": "patent US20020081731A1", "about": "“MANIPULATION OF PLANT CELL AND TISSUE CULTURES” (priority 1995, published 2002)", "tested_on": "E. californica suspension subcultures", "test": "Seed pretreatment, HPLC analysis of suspension subculture extracts", "format": "cell-based, Eschscholtzia californica", "conditions": "ungerminated seeds pretreated or not pretreated; T1 and T3 conditions; organic solvent extract of cell biomass", "text": "Ungerminated E. californica seeds were either pretreated by exposure to 5-azacytidine, or not pretreated. After uniform germination, callus induction and subculture, suspension initiation, and suspension subculture, the resulting suspension subcultures were subjected to T1 (control) and T3 conditions.", "data": [{"smiles": "Nc1ncn([C@@H]2O[C@H](CO)[C@@H](O)[C@H]2O)c(=O)n1", "note": "[5-azacytidine]", "values": [{"measurement": "size, number, and location of peaks in the chromatograms", "value": "significantly altered the size, number, and location of peaks"}]}]}
